Source: patent US20250188422A1, “INDUCED TOTIPOTENT POTENTIAL STEM CELLS, METHODS OF MAKING AND USING” (Peking University, priority 2022, published 2025)

What was measured:
[1] = test system: Zscan4-Emerald GFP and MERVL-tdTomato reporter expression in mouse EPS cells; experiment: Screen with Zscan4-Emerald GFP and MERVL-tdTomato reporter EPS cells; assay type: cell-based; conditions: for effect with CD1530 in inducing totipotent markers: combined with CD1530, EPS reporter cells, day 3
Experimental: Cells were gently digested into single cells using 0.05% trypsin-EDTA. Suspensions were filtered through a 40 µm cell strainer. Then, the samples were analyzed on CytoFLEX (Beckman Coulter). Data analysis was performed using CytExpert software.
To identify small molecules that can induce totipotent features in mouse EPS cells, we used cell lines carrying a MERVL-TdTomato or a Zscan4-Emerald GFP reporter. As the positive control, Dux overexpression was performed in these reporter cells (FIG. 6a-c). N2B27 medium was used for screening and Wnt signaling agonist CHIR 99021 was also added for promoting cell proliferation. In the primary screen, we focused on identifying small molecules that can increase the percentage of Zscan4-Emerald GFP+ cells, and identified more than 50 primary hits. These candidates were further evaluated using MERVL-tdTomato reporter cells and small molecules that can also induce MERVL-tdTomato were selected out for further determining their optimal dosage in activating Zscan4-Emerald and MERVL-tdTomato expression without inducing significant toxicity. […] Therefore, CHIR 99021 was included in the chemical cocktail.

[2] = test system: EPS cells during TPS conversion; experiment: Cell proliferation during conversion of EPS cells to TPS cells; assay type: cell-based, mouse; conditions: CHIR 99021 omitted from the cocktail during the conversion
Experimental: Mouse EPS cells and ES cells cultured in N2B27-LCDM medium or N2B27-2i/LIF medium for two days were used for TPS generation. Mouse EPS cells and ES cells were washed with DMEM/F12, then 0.05% trypsin-EDTA (Gibco, 25300-062) was added and incubated for 3 min, then DMEM (Gibco, 11965092) supplemented with 10% FBS (Hyclone, SH30070.03) was added. The cells were pipetted up and down several times into single cells. Cells were centrifuged and re-suspended in 4S medium contained N2B27 which promoted cell proliferation or RPMI Medium 1640 basic (Gibco, 22400-089) which enhanced totipotent molecular features supplemented with 5% knockout serum replacement (Gibco, 10828-028), 0.2% sodium pyruvate (Gibco, 11360-070), 0.14% sodium DL-lactate solution (Sigma, L7900) and 0.1% Chemically Defined Lipid Concentrate (Gibco, 11905-031), VPA (50 μM; Selleck, S3944), CHIR-99021, EPZ004777 (1 μM, Selleck, S7353) and CD1530 ([…]-0.5 μM; Tocris, 2554). […]
To identify small molecules that can induce totipotent features in mouse EPS cells, we used cell lines carrying a MERVL-TdTomato or a Zscan4-Emerald GFP reporter. […] These candidates were further evaluated using MERVL-tdTomato reporter cells and small molecules that can also induce MERVL-tdTomato were selected out for further determining their optimal dosage in activating Zscan4-Emerald and MERVL-tdTomato expression without inducing significant toxicity. […]

[3] = test system: 8-cell ICR diploid mouse embryos; experiment: Chimeric assay of single-cell microinjection into 8-cell embryos; assay type: in vivo; conditions: omission of CHIR 99021
Experimental: Cells were digested by 0.05% trypsin-EDTA, and the digested cells were filtered through a 40 µm cell strainer, centrifuged at 1,200-1,500 rpm for 3 min at room temperature. Supernatant were removed and cells were suspended using culture medium with the addition of Y-27632 (10 μM; Tocris, 1254), and placed on the ice before injection. After being placed on ice, the digested cells should be injected in 1 h, otherwise, another batch of cells were digested for the remaining injections.
Single cells were microinjected into 8-cell ICR diploid mouse embryos. The injected embryos were cultured in the culture medium with Y-27632 (10 μM; Tocris, 1254) for the first 4 h. For the generation of chimeric blastocysts, the embryos were transferred into the KSOM medium (Merck, MR-106-D). For the generation of single-cell derived in vivo chimeric conceptuses, chimeric embryos were cultured into KSOM medium with Y-27632 (10 μM; Tocris, 1254) addition in a humidified incubator under 5% CO2 at 37° C. overnight. Injected embryos were transferred to uterine horns of 0.5 post coitum pseudo-pregnant females. Fetal tissues, yolk sacs, placentas were dissected from conceptuses at E7.5, E10.5, E13.5 or E17.5 developmental stages.

TPS cells = experiment: Culture of TPS cells without CHIR 99021; assay type: cell-based, mouse
Experimental: All cell lines were cultured under 20% 02 and 5% C02 at 37° C. Mouse TPS cells were cultured in 4S medium contained N2B27 basal medium [50% DMEM/F12 (Gibco, 11330-032), 50% Neurobasal (Gibco, 21103-049), 0.5% N2 supplement (Gibco, 17502-048), 1% B27 supplement (Gibco, 12587-010), 1% GlutaMAX (Gibco, 35050-061), 1% nonessential amino acids (Gibco, 11140-050)] which promoted cell proliferation, or 1640 basal medium [RPMI Medium 1640 basic (Gibco, 22400-089), 0.5% N2 supplement (Gibco, 17502-048), 1% B27 supplement (Gibco, 12587-010), 1% GlutaMAX (Gibco, 35050-061), 1% nonessential amino acids (Gibco, 11140-050)] which enhanced totipotent molecular features, supplemented with 5% knockout serum replacement (Gibco, 10828-028), 0.2% sodium pyruvate (Gibco, 11360-070), 0.14% sodium DL-lactate solution (Sigma, L7900) and 0.1% Chemically Defined Lipid Concentrate (Gibco, 11905-031), VPA (50 μM; Selleck, S3944), CHIR-99021 (3 μM; Selleck, S1263), EPZ004777 (1 μM, Selleck, S7353) and CD1530 ([…]-0.5 μM; Tocris, 2554). Mouse TPS cells were cultured on mitomycin C inactivated mouse embryonic fibroblast cells (feeders, 3*10^4 cells per cm^2). The culture medium was changed every day. TPS cells were passaged every three days with 0.05% trypsin-EDTA (Gibco, 25300-062) and seeded at a split ratio ranging from 1:3 to 1:10. To generate TPS cells, EPS cells or ES cells were dissociated and cultured on feeders in 4S medium for the first three passages, EPS cells or ES cells need to seed at a lower split ratio 1:3 to improve cell viability. After five passages, TPS cells were generated for further experiments.
The total RNAs were isolated using the Direct-zol RNA Kits (ZYMO Research, R2052). RNA was converted to cDNA using TransScript FirstStrand cDNA Synthesis SuperMix (TransGen Biotech, AT311). Quantitative PCR analysis was conducted using the KAPA SYBR FAST qPCR Kit (KAPA Biosystems, KK4601) with the Bio RAD CFX Connect Real-Time System. The data were analyzed using the delta-delta CT method.
Next, we sought to analyze the role of CHIR 99021 in the induction and maintenance of TPS cells. […]

Structure (SMILES): O=C(O)c1ccc(-c2ccc3cc(O)c(C45CC6CC(CC(C6)C4)C5)cc3c2)cc1 [CD1530]
- inducing Zscan4-GFP and MERVL-tdTomato expression ([1]; EPS reporter cells, N2B27 medium with CHIR 99021, after titration, compared with other screening hits): most effective

Structure (SMILES): Cc1c[nH]c(-c2cnc(NCCNc3ccc(C#N)cn3)nc2-c2ccc(Cl)cc2Cl)n1 [CHIR 99021]
- cell proliferation [2]: greatly reduced
- in vivo chimeric of TPS cells [3]: greatly reduce
- requirement for the proliferation of TPS cells (TPS cells; omission of CHIR 99021, after further passaging): not required
- expression of totipotent marker genes in TPS cells (TPS cells; omission of CHIR 99021, after long-term culturing): not affected
- proliferation of TPS cells (TPS cells; omission of CHIR 99021, first few passages (about 3-5 passages)): reduced proliferation

Structure (SMILES): CC(C)N(CCCNC(=O)Nc1ccc(C(C)(C)C)cc1)C[C@H]1O[C@@H](n2ccc3c(N)ncnc32)[C@H](O)[C@@H]1O [EPZ004777]
- effect with CD1530 in inducing totipotent markers [1]: synergistic effect

Structure (SMILES): CCCC(CCC)C(=O)O [VPA]
- effect with CD1530 in inducing totipotent markers [1]: synergistic effect
